Experimental data reported in PubChem BioAssay AID1963834 (Molecular Pharmacology Branch, DTP, NCI, 2024).

Tested on: 873145-292-R-J1-PDC complex spheroid viability
Test: Anticancer human tumor 873145-292-R-J1-PDC patient-derived renal clear cell carcinoma cell line growth inhibition [POLQ]
Conditions: for IC50: curve of first compound; for viability, T/C: stronger effect = lower value
Method: Multicellular complex tumor spheroid response to Polymerase (POL) inhibitors (novobiocin, ART-558, RP6685) in combination with a variety of drugs and investigational agents in selected tumor cell lines
The POL inhibitors (novobiocin, ART-558, and RP6685) were evaluated both individually and in combination with standard of care and investigational anticancer small molecules within a complex spheroid model of solid tumors. . Complex spheroids include a stromal component modeled by human endothelial cells (HUVEC) and fibroblasts modeled by human mesenchymal stem cells (MSCs). The concentration ranges selected for each drug and investigational agent were based upon clinically achievable concentrations if the clinical Cmax of the agent was known.
Compounds. The drugs and investigational agents: novobiocin (NSC847541), ART-558 (NSC835418), RP-6685 (NSC848927), peposertib (NSC802822), ceralasertib (NSC780249), elimusertib (NSC800525), camonsertib (NSC841442), AZD-1390 (NSC803789), olaparib (NSC753686), talazoparib (NSC767125), rucaparib (NSC756644), sotorasib (NSC818433), MRTX-1133 (NSC836407), SN-38 (NSC673596), topotecan (NSC609699), epotoside (NSC141540), doxorubicin (NSC123127), gemcitabine (NSC613327), 5-fluorouracil (NSC19893), paclitaxel (NSC125973), vemurafenib (NSC761431), MSA-2 (NSC828583), SN-011 (NSC837082), adavosertib (NSC754352), prexasertib (NSC758257), carboplatin (NSC241240) and oxaliplatin (NSC266046), were obtained from the National Cancer Institute (NCI) Developmental Therapeutics Program Chemical Repository (21). The FDA-approved anticancer drug set is available from the Developmental Therapeutics Program at https://dtp.cancer.gov/organization/dscb/obtaining/. […] The stock solutions were prepared in dimethyl sulfoxide (DMSO, Sigma-Aldrich, St. Louis, MO, cat. D2650), except for the platinum compounds which were prepared in saline (Quality Biological, Gaithersburg, MD, cat. 114-055-101), at 800-fold the tested concentration and stored at -70 degrees C prior to their use. All drugs and investigational agents were tested over a range starting from a high concentration at or near the clinical Cmax and decreasing in half-log increments. If the clinical Cmax for an agent had not been determined, the highest concentration tested was 10 microM, except for SN-38, which was tested at a high concentration of 1 microM.
Cell Culture. All cells were maintained in an incubator at 37 degrees C and 5% CO2 with 95% humidity. The PDC lines were cultured according to standard operating procedures established by the NCI PDMR (https://pdmr.cancer.gov). Table 3 of the manuscript, lists the cell lines along with the number of the three cell types plated to form the mct-spheroids and media for tumor cell growth. After thawing, all PDC lines, except 997537-175-T-J1-PDC and 415267-285-R-J2-PDC, were cultured in Matrigel-coated flasks prepared with a working solution of 1X Ham's F-12 nutrient mix, without supplementation (Thermo Fisher Scientific, cat. 11765054), 100 U/mL penicillin-streptomycin (Thermo Fisher Scientific, cat. 15140122), and 2.5% Matrigel (Corning Inc., Corning, NY, cat. 354248) for the first three passages. The two PDC lines 997537-175-T-J1-PDC and 415267-285-R-J2-PDC were cultured on uncoated flasks. The 857933-349-R-J2-PDC line was cultured in 6C/Colon 1B media containing advanced DMEM/F-12 (Thermo Fisher Scientific, cat. 12634028), 10 mM HEPES (Thermo Fisher Scientific, cat. 15630080), 1X GlutaMAX supplement (Thermo Fisher Scientific, cat. 35050061), 0.1 mg/mL primocin (InvivoGen, San Diego, CA, cat. ant-pm-2), 10% defined fetal bovine serum, heat inactivated (HyClone Laboratories Inc., Logan, UT, cat. SH30070.03HI), 50% L-WRN conditioned media (ATCC, cat. CRL-3276), 1.25 mM N-Acetyl-L-cysteine (Sigma-Aldrich, cat. A9165), 10 mM nicotinamide (Sigma-Aldrich, cat. N0636), 1X B-27 supplement (Thermo Fisher Scientific, cat. 17504044), 1X N-2 supplement (Thermo Fisher Scientific, cat. […]

[1] = second compound 0.0316 µM, first compound 0.0316 µM
[2] = second compound 0.0316 µM, first compound 0.1 µM
[3] = second compound 0.0316 µM, first compound 0.316 µM
[4] = second compound 0.0316 µM, first compound 1 µM
[5] = second compound 0.0316 µM, first compound 3.16 µM
[6] = second compound 0.0316 µM, first compound 10 µM
[7] = second compound 0.1 µM, first compound 0.0316 µM
[8] = second compound 0.1 µM, first compound 0.1 µM
[9] = second compound 0.1 µM, first compound 0.316 µM
[10] = second compound 0.1 µM, first compound 1 µM
[11] = second compound 0.1 µM, first compound 3.16 µM
[12] = second compound 0.1 µM, first compound 10 µM
[13] = second compound 0.316 µM, first compound 0.0316 µM
[14] = second compound 0.316 µM, first compound 0.1 µM
[15] = second compound 0.316 µM, first compound 0.316 µM
[16] = second compound 0.316 µM, first compound 1 µM
[17] = second compound 0.316 µM, first compound 3.16 µM
[18] = second compound 0.316 µM, first compound 10 µM
[19] = second compound 1 µM, first compound 0.0316 µM
[20] = second compound 1 µM, first compound 0.1 µM
[21] = second compound 1 µM, first compound 0.316 µM
[22] = second compound 1 µM, first compound 1 µM
[23] = second compound 1 µM, first compound 3.16 µM
[24] = second compound 1 µM, first compound 10 µM
[25] = second compound 3.16 µM, first compound 0.0316 µM
[26] = second compound 3.16 µM, first compound 0.1 µM
[27] = second compound 3.16 µM, first compound 0.316 µM
[28] = second compound 3.16 µM, first compound 1 µM
[29] = second compound 3.16 µM, first compound 3.16 µM
[30] = second compound 3.16 µM, first compound 10 µM
[31] = second compound 10 µM, first compound 0.0316 µM
[32] = second compound 10 µM, first compound 0.1 µM
[33] = second compound 10 µM, first compound 0.316 µM
[34] = second compound 10 µM, first compound 1 µM
[35] = second compound 10 µM, first compound 3.16 µM
[36] = second compound 10 µM, first compound 10 µM
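Also: spheroids exposed to compounds for 7 days before viability readout.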
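For viability, T/C in this document: luminescence signal used as surrogate for viable cell content; 100% = DMSO vehicle control viability.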

COc1cc(C2c3cc4c(cc3C(OC3OC5COC(C)OC5C(O)C3O)C3COC(=O)C23)OCO4)cc(OC)c1O (centres undefined) + COC1C(OC(N)=O)C(O)C(Oc2ccc3c(O)c(NC(=O)c4ccc(O)c(CC=C(C)C)c4)c(=O)oc3c2C)OC1(C)C
IC50 (second compound 0.0316 µM): > 10 µM | IC50 (second compound 0.1 µM): > 10 µM | IC50 (second compound 0.316 µM): > 10 µM | IC50 (second compound 1 µM): > 10 µM | IC50 (second compound 3.16 µM): > 10 µM | IC50 (second compound 10 µM): > 10 µM | viability, T/C [1]: 104% | viability, T/C [2]: 108% | viability, T/C [3]: 103% | viability, T/C [4]: 99.1% | viability, T/C [5]: 80.3% | viability, T/C [6]: 57.2% | viability, T/C [7]: 112% | viability, T/C [8]: 101% | viability, T/C [9]: 101% | viability, T/C [10]: 96.2% | viability, T/C [11]: 72.5% | viability, T/C [12]: 53.8% | viability, T/C [13]: 114% | viability, T/C [14]: 99.4% | viability, T/C [15]: 100% | viability, T/C [16]: 87.4% | viability, T/C [17]: 72.9% | viability, T/C [18]: 54.3% | viability, T/C [19]: 96.2% | viability, T/C [20]: 95.5% | viability, T/C [21]: 101% | viability, T/C [22]: 86.2% | viability, T/C [23]: 79% | viability, T/C [24]: 53.4% | viability, T/C [25]: 107% | viability, T/C [26]: 106% | viability, T/C [27]: 104% | viability, T/C [28]: 86.6% | viability, T/C [29]: 70.9% | viability, T/C [30]: 57.7% | viability, T/C [31]: 103% | viability, T/C [32]: 103% | viability, T/C [33]: 95.5% | viability, T/C [34]: 94.5% | viability, T/C [35]: 76.7% | viability, T/C [36]: 67.2%

COc1cccc2c1C(=O)c1c(O)c3c(c(O)c1C2=O)CC(O)(C(=O)CO)CC3OC1CC(N)C(O)C(C)O1 (centres undefined) + COC1C(OC(N)=O)C(O)C(Oc2ccc3c(O)c(NC(=O)c4ccc(O)c(CC=C(C)C)c4)c(=O)oc3c2C)OC1(C)C
IC50 (second compound 0.0316 µM): 1.61 µM | IC50 (second compound 0.1 µM): 1.6 µM | IC50 (second compound 0.316 µM): 1.51 µM | IC50 (second compound 1 µM): 1.4 µM | IC50 (second compound 3.16 µM): 1.45 µM | IC50 (second compound 10 µM): 1.5 µM | viability, T/C [1]: 98.9% | viability, T/C [2]: 92.4% | viability, T/C [3]: 74.9% | viability, T/C [4]: 81.8% | viability, T/C [5]: 4.46% | viability, T/C [6]: 4.3% | viability, T/C [7]: 99.5% | viability, T/C [8]: 91.7% | viability, T/C [9]: 75.1% | viability, T/C [10]: 80.8% | viability, T/C [11]: 5.22% | viability, T/C [12]: 4.58% | viability, T/C [13]: 98.1% | viability, T/C [14]: 84.2% | viability, T/C [15]: 69.3% | viability, T/C [16]: 74.1% | viability, T/C [17]: 7.63% | viability, T/C [18]: 3.12% | viability, T/C [19]: 99.6% | viability, T/C [20]: 78.8% | viability, T/C [21]: 78.8% | viability, T/C [22]: 68.5% | viability, T/C [23]: 5.35% | viability, T/C [24]: 3.76% | viability, T/C [25]: 93.3% | viability, T/C [26]: 79.8% | viability, T/C [27]: 80.7% | viability, T/C [28]: 71.1% | viability, T/C [29]: 5.62% | viability, T/C [30]: 2.42% | viability, T/C [31]: 101% | viability, T/C [32]: 90.1% | viability, T/C [33]: 78.2% | viability, T/C [34]: 74.4% | viability, T/C [35]: 5.66% | viability, T/C [36]: 2.86%
